Source: patent publication US20220073536A1 (Rigel Pharmaceuticals, Inc., priority 2003, published 2022)
Each block holds one compound with its values, some of them ahead of it.

Key:
[1] = tested on: cultured human mast cells (CHMC); experiment: CHMC low cell density ionomycin activation: tryptase assay; type: cell-based; conditions: read-out: LD Tryptase, CHMC, Iono, 3 pt
[2] = tested on: cultured human mast cells (CHMC); experiment: CHMC low cell density IgE activation: tryptase assay; type: cell-based; conditions: IgE activation
How it was run: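 CHMC were seeded at 1000–1500 cells/well in MT buffer and incubated 1 hr at 37 °C. They were then stimulated with anti-IgE for 30 min at 37 °C, with unstimulated wells as controls. Released tryptase in the supernatant was measured with a fluorogenic substrate after 30 min at room temperature.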

[3] = Homo sapiens, Mast cell, low cell density CHMC, tryptase release, 3 pt
[4] = Homo sapiens, Mast cell, low cell density CHMC, tryptase release, 3 pt, read-out: LD Tryptase, CHMC, IgE, 3 pt
[5] = Homo sapiens, Mast cell, low cell density CHMC, tryptase release, 8 pt, read-out: LD Tryptase, CHMC, IgE, 8 pt
[6] = low cell density CHMC, tryptase readout, 3 pt
[7] = low cell density CHMC, tryptase readout, 3 pt, read-out: LD Tryptase, CHMC, IgE, 3 pt
[8] = low cell density CHMC, tryptase readout, 8 pt, read-out: LD Tryptase, CHMC, IgE, 8 pt
[9] = Homo sapiens, Mast cell, low cell density CHMC, tryptase readout, 3 pt
[10] = Homo sapiens, Mast cell, low cell density CHMC, tryptase readout, 3 pt, read-out: LD Tryptase, CHMC, IgE, 3 pt
[11] = Homo sapiens, Mast cell, low cell density CHMC, tryptase readout, 8 pt, read-out: LD Tryptase, CHMC, IgE, 8 pt
[12] = Homo sapiens, Mast cell, low cell density CHMC, tryptase release, 3 point
[13] = Homo sapiens, Mast cell, low cell density CHMC, tryptase release, 3 point, read-out: LD Tryptase, CHMC, IgE, 3 pt
[14] = Homo sapiens, Mast cell, low cell density CHMC, tryptase release, 8 point, read-out: LD Tryptase, CHMC, IgE, 8 pt
[15] = Homo sapiens, Mast cell, low cell density CHMC, tryptase, 3 pt
[16] = Homo sapiens, Mast cell, low cell density CHMC, tryptase, 3 pt, read-out: LD Tryptase, CHMC, IgE, 3 pt
[17] = low cell density CHMC, tryptase release, 3 point
[18] = low cell density CHMC, tryptase release, 3 point, read-out: LD Tryptase, CHMC, IgE, 3 pt
[19] = low cell density CHMC, tryptase release, 8 point, read-out: LD Tryptase, CHMC, IgE, 8 pt

SMILES: Cc1cc(Nc2ncc(F)c(Nc3ccc4c(n3)NC(=O)C(C)(C)O4)n2)cc(Cl)c1OCC(=O)NCC(O)CO (stereo not shown) [Compound 1043, N2-[3-Chloro-4-[N-(2,3-dihydroxypropyl)amino]carbonylmethyleneoxy-5-methylphenyl]-N4-(2,2-dimethyl-3-oxo-4H-5-pyrid[1,4]oxazin-6-yl)-5-fluoro-2,4-pyrimidinediamine]
IC50 [1, 6]: > 10 µM | IC50 [2, 7]: < 10 µM | IC50 [2, 8]: < 10 µM

SMILES: CN1CCN(c2ccc(Nc3ncc(F)c(Nc4cc(C(C)(C)C)[nH]n4)n3)cc2)CC1 [Compound 1104]
IC50 [1, 9]: > 10 µM | IC50 [2, 10]: < 10 µM | IC50 [2, 11]: < 10 µM

SMILES: CN1CCN(c2ccc(Nc3ncc(F)c(NC4CCC4)n3)cc2)CC1 [Compound 1110, N4-Cyclobutyl-5-fluoro-N2-[4-(4-methylpiperazino)phenyl]-2,4-pyrimidinediamine]
IC50 [1, 9]: > 10 µM | IC50 [2, 10]: < 10 µM

SMILES: COc1cc(Nc2ncc(F)c(Nc3cccc(NC4=NCCN4)c3)n2)cc(OC)c1 [Compound 1096, N2-(3,5-Dimethoxyphenyl)-5-fluoro-N4-[3-(N-2-imidazolin-2-yl)aminophenyl]-2,4-pyrimidinediamine]
IC50 [1, 9]: > 10 µM | IC50 [2, 10]: < 10 µM | IC50 [2, 11]: > 10 µM

SMILES: CNC(=O)c1ccc(Nc2nc(Nc3cc(OC)cc(OC)c3)ncc2F)cc1Cl [Compound 481]
IC50 ([1]; Homo sapiens, Mast cell, low cell density, 3 pt): > 10 µM | IC50 ([2]; Homo sapiens, Mast cell, low cell density, 3 pt, read-out: LD Tryptase, CHMC, IgE, 3 pt): < 10 µM | IC50 ([2]; Homo sapiens, Mast cell, low cell density, 8 pt, read-out: LD Tryptase, CHMC, IgE, 8 pt): < 10 µM

SMILES: COC(=O)N1CCN(c2ccc(Nc3ncc(F)c(Nc4cccc(NC5=NCCN5)c4)n3)cc2)CC1 [Compound 1100, 5-Fluoro-N4-[3-(N-2-imidazolin-2-yl)aminophenyl]-N2-[4-(4-methoxycarbonylpiperazino)phenyl]-2,4-pyrimidinediamine]
IC50 [1, 9]: > 10 µM | IC50 [2, 10]: > 10 µM

SMILES: CN1CCN(c2ccc(Nc3ncc(F)c(NC4CCCC4)n3)cc2)CC1 [Compound 1157, N4-Cyclopentyl-5-fluoro-N2-[4-(4-methylpiperazino)phenyl]-2,4-pyrimidinediamine]
IC50 [1, 15]: > 10 µM | IC50 [2, 16]: < 10 µM

SMILES: CN1CCN(c2ccc(Nc3ncc(F)c(Nc4cc(C5CC5)n[nH]4)n3)cc2)CC1 [Compound 1113, N4-(3-Cyclopropyl-1H-pyrazol-5-yl)-5-fluoro-N2-[4-(4-methylpiperazino)phenyl]-2,4-pyrimidinediamine]
IC50 [1, 15]: > 10 µM | IC50 [2, 16]: < 10 µM | IC50 ([2]; Homo sapiens, Mast cell, low cell density CHMC, tryptase, 8 pt, read-out: LD Tryptase, CHMC, IgE, 8 pt): < 10 µM

SMILES: O=C1COc2cc(Nc3nc(Nc4ccc(-c5ncco5)cc4)ncc3F)ccc2N1 [Compound 241]
IC50 [1, 3]: > 10 µM | IC50 [2, 4]: > 10 µM

SMILES: OCCOc1ccc(Nc2nc(Nc3ccc4[nH]ccc4c3)ncc2F)cc1Cl [Compound 623, N4-[3-Chloro-4-(2-hydroxyethyleneoxy)phenyl]-5-fluoro-N2-(indol-5-yl)-2,4-pyrimidinediamine]
IC50 [1, 17]: < 10 µM | IC50 [2, 18]: < 10 µM | IC50 [2, 19]: < 10 µM

SMILES: CN1C(=O)COc2cc(Nc3nc(Nc4ccc(-c5cnco5)cc4)ncc3F)ccc21 [Compound 230]
IC50 [1, 3]: > 10 µM | IC50 [2, 4]: > 10 µM | IC50 [2, 5]: > 10 µM

SMILES: CN1C(=O)C(C)(C)Oc2ccc(N(C)c3nc(Nc4cccc(-c5cocn5)c4)ncc3F)cc21 [Compound 1030]
IC50 [1, 9]: < 10 µM | IC50 [2, 10]: < 10 µM

SMILES: CNC(=O)COc1cccc(Nc2ncc(F)c(N(C)c3ccc(Cl)c(OC)c3)n2)c1 [Compound 589, N4-(4-Chloro-3-methoxyphenyl)-5-fluoro-N4-methyl-N2-[3-(N-methylamino)carbonylmethyleneoxyphenyl]-2,4-pyrimidinediamine]
IC50 [1, 17]: > 10 µM | IC50 [2, 18]: < 10 µM | IC50 [2, 19]: < 10 µM

SMILES: CC(=O)N1CCN(c2cccc(Nc3ncc(F)c(N[C@H]4CCN(Cc5ccccc5)C4)n3)c2)CC1 [Compound 1185, (S)-N2-[3-(4-Acetylpiperazino)phenyl]-N4-(benzylpyrrolidin-3-yl)-5-fluoro-2,4-pyrimidinediamine]
IC50 ([1]; low cell density CHMC, tryptase, 3 pt): > 10 µM | IC50 ([2]; low cell density CHMC, tryptase, 3 pt, read-out: LD Tryptase, CHMC, IgE, 3 pt): < 10 µM

Other lines, results leading:

IC50 [1, 3]: > 10 µM | IC50 [2, 4]: < 10 µM | IC50 [2, 5]: < 10 µM
SMILES: COc1ccc(Nc2nc(Nc3ccc4c(cnn4CCCOC(C)=O)c3)ncc2F)cc1Cl [Compound 788, N2-[1-(3-Acetyloxypropyl)indazol-5-yl]-N4-(3-chloro-4-methoxyphenyl)-5-fluoro-2,4-pyrimidinediamine]

IC50 [1, 6]: > 10 µM | IC50 [2, 7]: < 10 µM
SMILES: CN1C(=O)C(C)(C)Oc2ccc(Nc3nc(Nc4ccc(-c5ncco5)cc4)ncc3F)nc21 [Compound 1013, 5-Fluoro-N2-[4-(oxazol-2-yl)phenyl]-N4-[3-oxo-2,2,4-trimethyl-5-pyrid[1,4]oxazin-6-yl]-2,4-pyrimidinediamine]

IC50 ([1]; low cell density CHMC, tryptase release, 3 pt): > 10 µM | IC50 ([2]; low cell density CHMC, tryptase release, 3 pt, read-out: LD Tryptase, CHMC, IgE, 3 pt): < 10 µM | IC50 ([2]; low cell density CHMC, tryptase release, 8 pt, read-out: LD Tryptase, CHMC, IgE, 8 pt): < 10 µM
SMILES: CNC(=O)COc1cccc(Nc2ncc(F)c(Nc3ccc4c(c3)NC(=O)CS4)n2)c1 [Compound 254, 5-Fluoro-N2-[3-(N-methylamino)carbonylmethyleneoxyphenyl]-N4-(3-oxo-2H,4H-benzo[1,4]thiazin-6-yl)-2,4-pyrimidinediamine]

IC50 [1, 6]: > 10 µM | IC50 [2, 7]: < 10 µM | IC50 [2, 8]: < 10 µM
SMILES: CC1(C)Oc2ccc(Nc3nc(Nc4cccc(-c5ncco5)c4)ncc3F)nc2NC1=O [Compound 1028, N4-(2,2-Dimethyl-3-oxo-4H-5-pyrid[1,4]oxazin-6-yl)-5-fluoro-N2-[3-(oxazol-2-yl)phenyl]-2,4-pyrimidinediamine]

IC50 [1, 3]: > 10 µM | IC50 [2, 4]: < 10 µM | IC50 [2, 5]: < 10 µM
SMILES: C[C@@H]1Oc2ccc(Nc3nc(Nc4ccc5c(cnn5CCCNS(C)(=O)=O)c4)ncc3F)cc2NC1=O [Compound 835, (S)-5-Fluoro-N4-(2-methyl-3-oxo-2H,4H-benz[1,4]oxazin-6-yl)-N2-[1-(3-(N-methylsulfonylamino)propyl)indazol-5-yl]-2,4-pyrimidinediamine]

IC50 [1, 12]: > 10 µM | IC50 [2, 13]: < 10 µM | IC50 [2, 14]: < 10 µM
SMILES: COc1cc(Nc2nc(Nc3ccc4cc[nH]c4c3)ncc2F)ccc1Cl [Compound 630, N4-(4-Chloro-3-methoxyphenyl)-5-fluoro-N2-(indol-6-yl)-2,4-pyrimidinediamine]

IC50 [1, 6]: > 10 µM | IC50 [2, 7]: < 10 µM | IC50 [2, 8]: < 10 µM
SMILES: CCn1ncc2ccc(Nc3ncc(F)c(Nc4ccc5c(n4)NC(=O)C(C)(C)O5)n3)cc21 [Compound 1049, N4-(2,2-Dimethyl-3-oxo-4H-5-pyrid[1,4]oxazin-6-yl)-N2-(1-ethylindazol-6-yl)-5-fluoro-2,4-pyrimidinediamine]

IC50 [1, 3]: > 10 µM | IC50 [2, 4]: < 10 µM | IC50 [2, 5]: < 10 µM
SMILES: C[C@@H]1Oc2ccc(Nc3nc(Nc4ccc(-c5ncco5)cc4)ncc3F)cc2NC1=O [Compound 240]

IC50 [1, 6]: > 10 µM | IC50 [2, 8]: < 10 µM
SMILES: CCOC(=O)COc1c(C)cc(Nc2ncc(F)c(Nc3ccc4c(n3)NC(=O)C(C)(C)O4)n2)cc1C [Compound 1038, N2-(3,5-Dimethyl-4-ethoxycarbonylmethyleneoxyphenyl)-N4-(2,2-dimethyl-3-oxo-4H-5-pyrid[1,4]oxazin-6-yl)-5-fluoro-2,4-pyrimidinediamine]

IC50 [1, 6]: < 10 µM | IC50 [2, 7]: < 10 µM | IC50 [2, 8]: < 10 µM
SMILES: Cn1ncc2ccc(Nc3ncc(F)c(Nc4ccc5c(n4)NCC(C)(C)O5)n3)cc21 [Compound 1052, N4-(3,4-Dihydro-2,2-dimethyl-4H-5-pyrid[1,4]oxazin-6-yl)-5-fluoro-N2-(1-methylindazol-6-yl)-2,4-pyrimidinediamine]

IC50 [1, 12]: > 10 µM | IC50 [2, 13]: < 10 µM | IC50 [2, 14]: < 10 µM
SMILES: CNC(=O)c1cc(Nc2ncc(F)c(Nc3ccc(Cl)c(OC)c3)n2)ccc1Cl [Compound 607, N4-(4-Chloro-3-methoxyphenyl)-N2-[4-chloro-3-(N-methylamino)carbonylphenyl]-5-fluoro-2,4-pyrimidinediamine]

IC50 [1, 17]: > 10 µM | IC50 [2, 18]: < 10 µM | IC50 [2, 19]: < 10 µM
SMILES: COC(=O)Cn1ccc2cc(Nc3ncc(F)c(Nc4ccc5c(c4)NC(=O)C(C)(C)O5)n3)ccc21 [Compound 643, N4-(2,2-Dimethyl-3-oxo-4H-benz[1,4]oxazin-6-yl)-5-fluoro-N2-[1-(methoxycarbonylmethylene)indol-5-yl]-2,4-pyrimidinediamine]
